According to ChEMBL document CHEMBL3867463, “Cytotoxic lanostanes from fruits of Garcinia wallichii Choisy (Guttiferae)” (Bioorg Med Chem Lett, 2016):

Key:
[1] = Cytotoxicity against human HEK293 cells by SRB method; assay type: toxicity, cell-based; conditions: read-out: ED50 (the source's name)
[2] = Cytotoxicity against rat ASK cells by SRB method; assay type: functional; conditions: read-out: ED50 (the source's name)
[3] = Cytotoxicity against human colon cancer cells by SRB method; assay type: functional; conditions: Cancer cell lines, read-out: ED50 (the source's name)
[4] = Cytotoxicity against human A549 cells by SRB method; assay type: functional; conditions: read-out: ED50 (the source's name)
[5] = Cytotoxicity against human HT-29 cells by SRB method; assay type: functional; conditions: read-out: ED50 (the source's name)
[6] = Cytotoxicity against mouse P388 cells by SRB method; assay type: functional; conditions: read-out: ED50 (the source's name)
[7] = Cytotoxicity against human MCF7 cells by SRB method; assay type: functional; conditions: read-out: ED50 (the source's name)
[8] = Cytotoxicity against human KB cells by SRB method; assay type: functional; conditions: read-out: ED50 (the source's name)

## C/C(=C\C=C\[C@@H](C)[C@H]1CC[C@@]2(C)[C@@H]3CC[C@H]4C(C)(C)C(=O)CC[C@]4(C)[C@@]3(O)CC[C@]12C)C(=O)O
[1]
  CC50: > 50 µM
[2]
  EC50: > 50 µM
[3]
  EC50: > 50 µM
[4]
  EC50: > 50 µM
[5]
  EC50: > 50 µM
[6]
  EC50: > 50 µM
[7]
  EC50: > 50 µM
[8]
  EC50: > 50 µM

## COC(=O)/C(C)=C/C=C/[C@@H](C)[C@H]1CC[C@@]2(C)[C@@H]3CC[C@H]4C(C)(C)[C@]5(O)CC[C@]4(CO5)[C@@]3(O)CC[C@]12C
[1]
  CC50: > 50 µM
[2]
  EC50: > 50 µM
[3]
  EC50: > 50 µM
[4]
  EC50: > 50 µM
[5]
  EC50: > 50 µM
[6]
  EC50: > 50 µM
[7]
  EC50: > 50 µM
[8]
  EC50: > 50 µM

## C/C(=C\C=C\[C@@H](C)[C@H]1CC[C@@]2(C)[C@@H]3CC[C@H]4C(C)(C)[C@]5(O)CC[C@]4(CO5)[C@@]3(O)CC[C@]12C)C(=O)O
[1]
  CC50: 6.89 µM
[2]
  EC50: 7.63 µM
[3]
  EC50: 4.73 µM
[4]
  EC50: 5.69 µM
[5]
  EC50: 5.39 µM
[6]
  EC50: 3.91 µM
[7]
  EC50: 6.19 µM
[8]
  EC50: 4.79 µM

## C/C(=C\CC[C@@H](C)[C@H]1CC[C@@]2(C)[C@@H]3CC[C@H]4C(C)(C)[C@@H](O)CC[C@]4(C)[C@@]3(O)CC[C@]12C)C(=O)O
[1]
  CC50: > 50 µM
[2]
  EC50: > 50 µM
[3]
  EC50: > 50 µM
[4]
  EC50: 35.1 µM
[5]
  EC50: 23.7 µM
[6]
  EC50: 24.1 µM
[7]
  EC50: > 50 µM
[8]
  EC50: 29.9 µM

## COC(=O)/C(C)=C/C=C/[C@@H](C)[C@H]1CC[C@@]2(C)[C@@H]3CC[C@H]4C(C)(C)C(=O)CC[C@]4(C)C3=CC[C@]12C
[1]
  CC50: > 50 µM
[2]
  EC50: > 50 µM
[3]
  EC50: > 50 µM
[4]
  EC50: > 50 µM
[5]
  EC50: > 50 µM
[6]
  EC50: > 50 µM
[7]
  EC50: > 50 µM
[8]
  EC50: > 50 µM

## C/C(=C\CC[C@@H](C)[C@H]1CC[C@@]2(C)[C@@H]3CC[C@H]4C(C)(C)C(=O)CC[C@]4(C)[C@@]3(O)CC[C@]12C)C(=O)O
[1]
  CC50: > 50 µM
[2]
  EC50: > 50 µM
[3]
  EC50: > 50 µM
[4]
  EC50: > 50 µM
[5]
  EC50: > 50 µM
[6]
  EC50: > 50 µM
[7]
  EC50: > 50 µM
[8]
  EC50: > 50 µM

## Cc1c2ccncc2c(C)c2c1[nH]c1ccccc12 [ELLIPTECINE]
[1]
  CC50: 2.03 µM
[2]
  EC50: 2.31 µM
[3]
  EC50: 2.19 µM
[4]
  EC50: 1.26 µM
[5]
  EC50: 2.43 µM
[6]
  EC50: 2.15 µM
[7]
  EC50: 2.11 µM
[8]
  EC50: 2.03 µM
